The NIST ThermoML archive (doi:10.1016/j.fluid.2011.03.005)

Assays:
[1] = Molar enthalpy of transition or fusion; conditions: Crystal; DSC
[2] = for mass density: 101.33 kPa, Liquid, Vibrating tube method

CCC[N+]1(C)CCCCC1.O=S(=O)([N-]S(=O)(=O)C(F)(F)F)C(F)(F)F
Conditions	Molar enthalpy of transition or fusion [kcal/mol]
[1]	6.12

[2]
Conditions	mass density [kg/m3]
293.15 K	1414.1
298.15 K	1409.6
303.15 K	1405.3
308.15 K	1401
313.15 K	1396.6
318.15 K	1392.3
323.15 K	1388
328.15 K	1383.7
333.15 K	1379.4
338.15 K	1375.1
343.15 K	1370.9
348.15 K	1366.6
353.15 K	1362.3
358.15 K	1358.1
363.15 K	1353.9

Conditions	Normal melting temperature [°C]
[2], Crystal, DTA	12.6
